# Patent US8575193B2, “N-substituted tetrahydroisoquinoline/isoindoline hydroxamic acid compounds” (4SC AG, priority 2008, dated 2013)
# Where a name gives a salt, the structure may show the parent alone.
# Target: T1, rHDAC6 (Homo sapiens, UniProt Q9UBN7)
# T1 construct: FLAG; made in house
# T1 sequence (Q9UBN7 1-1215): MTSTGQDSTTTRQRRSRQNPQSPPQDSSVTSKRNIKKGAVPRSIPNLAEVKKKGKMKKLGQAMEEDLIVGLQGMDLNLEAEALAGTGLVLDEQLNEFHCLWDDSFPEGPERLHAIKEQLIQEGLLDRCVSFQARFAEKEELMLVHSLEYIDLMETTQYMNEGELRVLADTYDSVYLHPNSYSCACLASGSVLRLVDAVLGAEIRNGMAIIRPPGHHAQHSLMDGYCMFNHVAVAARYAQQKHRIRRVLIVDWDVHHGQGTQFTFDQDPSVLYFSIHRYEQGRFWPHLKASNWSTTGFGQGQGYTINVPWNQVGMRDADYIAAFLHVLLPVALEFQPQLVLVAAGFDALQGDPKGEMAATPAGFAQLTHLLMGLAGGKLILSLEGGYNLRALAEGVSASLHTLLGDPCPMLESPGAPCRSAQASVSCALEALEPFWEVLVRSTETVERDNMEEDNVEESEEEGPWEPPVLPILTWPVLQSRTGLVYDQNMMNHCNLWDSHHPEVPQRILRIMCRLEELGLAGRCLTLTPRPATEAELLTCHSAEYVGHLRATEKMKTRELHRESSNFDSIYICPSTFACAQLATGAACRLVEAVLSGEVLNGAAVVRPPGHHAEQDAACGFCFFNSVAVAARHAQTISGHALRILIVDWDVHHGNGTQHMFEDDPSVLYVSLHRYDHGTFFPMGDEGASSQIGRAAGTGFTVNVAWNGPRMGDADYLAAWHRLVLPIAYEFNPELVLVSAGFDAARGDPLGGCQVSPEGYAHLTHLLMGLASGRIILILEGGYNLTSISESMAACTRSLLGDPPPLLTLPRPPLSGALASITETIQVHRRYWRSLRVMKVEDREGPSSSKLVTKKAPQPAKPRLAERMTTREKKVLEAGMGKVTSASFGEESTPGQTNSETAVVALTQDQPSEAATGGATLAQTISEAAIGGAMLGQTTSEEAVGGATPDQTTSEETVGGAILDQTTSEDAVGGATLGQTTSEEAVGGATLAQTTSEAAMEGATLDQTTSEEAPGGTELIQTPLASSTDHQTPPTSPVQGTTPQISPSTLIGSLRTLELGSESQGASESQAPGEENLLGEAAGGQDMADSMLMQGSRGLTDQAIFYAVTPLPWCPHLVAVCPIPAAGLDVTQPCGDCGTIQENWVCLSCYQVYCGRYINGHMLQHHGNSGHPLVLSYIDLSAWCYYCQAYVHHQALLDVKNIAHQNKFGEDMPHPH
# Experiment: rHDAC6 enzymatic assay (recombinant FLAG-HDAC6)
# Format: biochemical
# Conditions: FLAG-HDAC6 from HEK293; 10 μM Ac-NH-GGK(Ac)-AMC, 3 h at 30° C.; read-out: rHDAC6 [pIC50] (converted)
# Description: Human HDAC1 and HDAC6 fused with the FLAG epitope are stably expressed in HEK293 cells while human HDAC3 and HDAC8 fused with the FLAG epitope are overexpressed in baculo-virus infected insect (Sf21) cells. To ensure stability of FLAG-HDAC3 the SMRT protein is co-expressed in the corresponding insect cells. […] FLAG-HDAC3 and FLAG-HDAC8 are also purified by M2-agarose affinity chromatography after mass cultivation of the insect cells and cell lysis.
# The HDAC enzyme activity assay is done as described by Wegener et al. (Chem. & Biol. 10, 61-68, 2003). Briefly 40 μl of a 1:100 dilution (=0.4 μl) nuclear HeLa extract (mixture of class I and II HDACs), 29 μl enzyme buffer (15 mM Tris HCl pH 8.1, 0.25 mM EDTA, 250 mM NaCl, 10% v:v glycerol) and 1 μl test compound are added to a well of a 96 well microtiter plate and reaction started by addition of 3 μl substrate (Ac-NH-GGK(Ac)-AMC; final concentration 25 μM and final volume […]). […] After incubation at room temperature for further 40 min, fluorescence is measured using a Wallac Victor 1420 multilabel counter (Ex 355 nm, Em 460 nm) for quantification of AMC (7-amino-4-methylcoumarin) generated by trypsine cleavage of the deacetylated peptide. […] The corresponding pIC50 values of the compounds for HDAC inhibitory activity are determined from the concentration-effect curves by means of non-linear regression (Graphpad Prism software).
# The HDAC1, HDAC3 and HDAC6 enzymatic assays are done with slight modifications with recombinant FLAG-HDAC1 and FLAG-HDAC6 proteins isolated from HEK293 cell lysates or recombinant FLAG-HDAC3 isolated from insect cells, respectively. The HDAC8 enzymatic assay using recombinant FLAG-HDAC8 isolated from insect cells is done with a different substrate. About 4.5 ng/well FLAG-HDAC1 and 3.1 ng/well FLAG-HDAC6 (dependent on batches and specific activity) are incubated with 6 μM or 10 μM Ac-NH-GGK(Ac)-AMC substrate, respectively, for 3 h at 30° C. About 1.7 ng/well FLAG-HDAC3 is incubated with 6 μM Ac-NH-GGK(Ac)-AMC substrate for 2 h at 30° C., while approximately 130 ng/well FLAG-HDAC8 is incubated with 50 μM Ac-RHK(Ac)K(Ac)-AMC substrate for 3 h at 30° C. Termination of the reaction and all further steps are done as described for HeLa cell nuclear extracts as a source for HDAC enzymatic activity. The corresponding pIC50 values of the compounds for HDAC1, HDAC3, HDAC6 and HDAC8 inhibitory activity are determined from the concentration-effect curves by means of non-linear regression.
row,IC50 [nM],Structure (SMILES)
1,100 to 1000,"CC(=O)N1CCc2cc(C(=O)NO)ccc2C1 [Example 12, 2-Acetyl-N-hydroxy-1,2,3,4-tetrahydroisoquinoline-6-carboxamide]"
2,1 to 100,"O=C(NO)c1ccc2c(c1)CN(C(=O)NCCc1ccccc1)CC2 [Example 22, N7-Hydroxy-N2-(2-phenylethyl)-3,4-dihydroisoquinoline-2,7(1H)-dicarboxamide]"
3,100 to 1000,"Cc1nccn1CC(=O)N1CCc2cc(C(=O)NO)ccc2C1 [Example 10, N-Hydroxy-2-[(2-methyl-1H-imidazol-1-yl)acetyl]-1,2,3,4-tetrahydroisoquinoline-6-carboxamide hydrochloride]"
4,100 to 1000,"O=C(NO)c1ccc2c(c1)CCN(C(=O)C1CCOC1)C2 (stereo not shown) [Example 13, N-Hydroxy-2-(tetrahydrofuran-3-ylcarbonyl)-1,2,3,4-tetrahydroisoquinoline-6-carboxamide]"
5,100 to 1000,"O=C(NO)c1ccc2c(c1)CCN(C(=O)Cc1cccnc1)C2 [Example 8, N-Hydroxy-2-(pyridin-3-ylacetyl)-1,2,3,4-tetrahydroisoquinoline-6-carboxamide hydrochloride]"
6,1 to 100,"O=C(NO)c1ccc2c(c1)CN(C(=O)Cc1cccnc1)CC2 [Example 19, N-Hydroxy-2-(pyridin-3-ylacetyl)-1,2,3,4-tetrahydroisoquinoline-7-carboxamide hydrochloride]"
7,100 to 1000,"COCCCOC(=O)N1CCc2cc(C(=O)NO)ccc2C1 [Example 6, 3-Methoxypropyl-6-(hydroxycarbamoyl)-3,4-dihydroisoquinoline-2(1H)-carboxylate]"
8,100 to 1000,"CN(C)CCCC(=O)N1CCc2cc(C(=O)NO)ccc2C1 [Example 9, 2-[4-(Dimethylamino)butanoyl]-N-hydroxy-1,2,3,4-tetrahydroisoquinoline-6-carboxamide hydrochloride]"
9,1 to 100,"COCCCNC(=O)N1CCc2cc(C(=O)NO)ccc2C1 [Example 5, N6-Hydroxy-N2-(3-methoxypropyl)-3,4-dihydroisoquinoline-2,6(1H)-dicarboxamide]"
10,1 to 100,"O=C(NO)c1ccc2c(c1)CCN(C(=O)Cc1c[nH]c3ccccc13)C2 [Example 1, N-Hydroxy-2-(indol-3-ylacetyl)-1,2,3,4-tetrahydroisoquinoline-6-carboxamide hydrochloride]"
11,1 to 100,"CNC(=O)N1CCc2cc(C(=O)NO)ccc2C1 [Example 4, N6-Hydroxy-N2-methyl-3,4-dihydroisoquinoline-2,6(1H)-dicarboxamide]"
12,100 to 1000,"O=C(NO)c1ccc2c(c1)CN(C(=O)C1CCOC1)CC2 (stereo not shown) [Example 20, N-Hydroxy-2-(tetrahydrofuran-3-ylcarbonyl)-1,2,3,4-tetrahydroisoquinoline-7-carboxamide]"
13,100 to 1000,"COCCOCC(=O)N1CCc2cc(C(=O)NO)ccc2C1 [Example 11, N-Hydroxy-2-[(2-methoxyethoxy)acetyl]-1,2,3,4-tetrahydroisoquinoline-6-carboxamide]"
14,1 to 100,"O=C(NO)c1ccc2c(c1)CCN(C(=O)CCc1cccnc1)C2 [Example 7, N-Hydroxy-2-(3-pyridin-3-ylpropanoyl)-1,2,3,4-tetrahydroisoquinoline-6-carboxamide hydrochloride]"
15,1 to 100,"O=C(NO)c1ccc2c(c1)CCN(C(=O)C1CCC1)C2 [Example 3, 2-(Cyclobutylcarbonyl)-N-hydroxy-1,2,3,4-tetrahydroisoquinoline-6-carboxamide]"
16,1 to 100,"O=C(NO)c1ccc2c(c1)CCN(C(=O)C1CC1)C2 [Example 16, N-Hydroxy-2-(cyclopropylcarbonyl)-1,2,3,4-tetrahydroisoquinoline-6-carboxamide]"
17,1 to 100,"CC#CC(=O)N1CCc2ccc(C(=O)NO)cc2C1 [Example 17, 2-But-2-ynoyl-N-hydroxy-1,2,3,4-tetrahydroisoquinoline-7-carboxamide]"
18,1 to 100,"O=C(NO)c1ccc2c(c1)CN(C(=O)Cc1ccccn1)CC2 [Example 21, N-Hydroxy-2-(pyridin-2-ylacetyl)-1,2,3,4-tetrahydroisoquinoline-7-carboxamide hydrochloride]"
19,1 to 100,"COc1ccc2[nH]c(C(=O)N3CCc4cc(C(=O)NO)ccc4C3)cc2c1 [Example 15, N-Hydroxy-2-[(5-methoxy-1H-indol-2-yl)carbonyl]-1,2,3,4-tetrahydroisoquinoline-6-carboxamide]"
20,1 to 100,"COc1ccc2[nH]c(C(=O)N3CCc4ccc(C(=O)NO)cc4C3)cc2c1 [Example 24, N-Hydroxy-2-[(5-methoxy-1H-indol-2-yl)carbonyl]-1,2,3,4-tetrahydroisoquinoline-7-carboxamide]"
21,1 to 100,"O=C(NO)c1ccc2c(c1)CN(C(=O)Cc1c[nH]c3ccccc13)CC2 [Example 18, N-Hydroxy-2-(1H-indol-3-ylacetyl)-1,2,3,4-tetrahydroisoquinoline-7-carboxamide]"
22,1 to 100,"Cc1ccc(C(=O)N2CCc3ccc(C(=O)NO)cc3C2)cc1 [Example 23, N-Hydroxy-2-(4-methylbenzoyl)-1,2,3,4-tetrahydroisoquinoline-7-carboxamide]"
